Data as given in patent US12559529B2, “NPY2 receptor agonists” (Boehringer Ingelheim International GmbH, priority 2019, dated 2026).
*1 amine or outer side, *2 acyl side, *3 side chain or, on linkers, in order; H or OH if unused. Where a SMILES comes first, the peptide text is derived from it. Side-chain parts run from the residue outwards. The star is where a group is joined. C18 diacid = O=C(O)CCCCCCCCCCCCCCCCC(=O)*; γGlu = O=C(O)[C@H](CCC(=O)[*:2])N[*:1]; Isovaleryl = CC(C)CC(=O)*; AEEA = NCCOCCOCC(=O)O

Tests used:
[1] = biological target: T1, Human Neuropeptide Y2 Receptor (Homo sapiens, UniProt P49146); assay: Radioligand binding competition assay (RLB)
T1 construct: purchased CHEMICON HTS066M
T1 sequence (P49146 1-381): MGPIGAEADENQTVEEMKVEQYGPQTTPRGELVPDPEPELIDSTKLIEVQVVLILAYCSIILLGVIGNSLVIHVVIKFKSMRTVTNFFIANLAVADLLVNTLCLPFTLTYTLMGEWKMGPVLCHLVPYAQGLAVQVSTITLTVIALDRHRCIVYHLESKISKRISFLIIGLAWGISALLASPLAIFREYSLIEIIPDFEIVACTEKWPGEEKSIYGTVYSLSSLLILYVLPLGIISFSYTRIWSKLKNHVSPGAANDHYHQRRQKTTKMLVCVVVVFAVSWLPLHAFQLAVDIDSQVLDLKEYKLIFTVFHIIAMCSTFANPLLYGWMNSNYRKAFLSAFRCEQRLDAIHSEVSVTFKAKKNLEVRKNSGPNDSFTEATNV
Outline: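 Peptide dilutions made in pH 7.4 HEPES assay buffer with 0.2% ovalbumin; human Y2 receptor membranes added at 0.5 μg protein/well; plates shaken 2 h at room temperature; reaction stopped by vacuum filtration onto PEI-treated GF/C filters with ice-cold high-salt washes; radioactivity counted by scintillation.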

[2] = biological target: T1, Human Neuropeptide Y2 Receptor; assay: Activity (RLB) after incubation in solutions at different pH values; type: binding; conditions: apparent Ki of filtrate after 2 h in buffer
Description: The filtration RLB assay was carried out in 96-well plates in a final volume of 100 μl per well. Freeze-dried test peptides were dissolved in 100% dimethyl sulfoxide (DMSO) to stock solutions of 1 mM and serial dilutions were performed in assay buffer (50 mM HEPES, 5 mM MgCl2, 1 mM CaCl2), pH 7.4) containing 0.2% ovalbumin. […] Next, 80 μL membranes (HTS066M, ChemiSCREEN™ Human Neuropeptide Y2 Receptor Membrane Preparation, CHEMICON) were added to each well to give a final protein concentration of 0.5 μg/well. The plates were sealed and incubated at room temperature for 2 hours in a plate shaker set at 400 rpm. The incubation was stopped by vacuum filtration onto 0.5% poly-ethylene amine (PEI) presoaked GF/C filters using a 96-well FilterMate™ harvester (Perkin Elmer) followed by four washes with 300 μl/well ice-cold wash buffer (50 mM HEPES, 500 mM NaCl, pH7.4). Filter plates were then dried for 60 min at room temperature and the bottom of the plates was sealed with backing tape UniFilter-96. Finally, 50 μl/well scintillation counter cocktail (Microscint20, Packard) was added and the radioactivity was counted in the Packard TopCount NXT scintillation counter. IC50 values (the half maximal inhibitory concentration of the agonist) were calculated by nonlinear regression analysis of sigmoidal dose-response curves.
Peptides (as TFA salts) were weighed out in a filter unit (Mini-UniPrep Syringeless Filter 0.45 μm, Whatman), and 0.1 M sodium diphosphate buffer at pH 6.4 or 7.4, respectively, or 0.2 M TRIS buffer at pH 8.3 was added to achieve 10 mg/ml final concentration. The peptide was (partially) dissolved by shaking the filter unit horizontally at approx. 400 rpm for 2 hours at room temperature. The sample was filtered to remove any insoluble particles.

[3] = Table 3, human 125I-PYY (1-36) 0.02 nM, Y2 receptor membranes, read-out: Ki
[4] = Table 8, from DMSO stock, read-out: hY2R RLB Ki (nM) DMSO
[5] = pH6.1-6.2, assumed 10 mg/ml, read-out: RLB 6 (pH6.1-6.2)
[6] = pH7.1-7.2, assumed 10 mg/ml, read-out: RLB 7 (pH7.1-7.2)

| SMILES | Ki [1, 3] [nM] | Ki [1, 4] [nM] | Ki [2, 5] [nM] | Ki [2, 6] [nM] | Ki ([2]; pH8.1-8.2, assumed 10 mg/ml, read-out: RLB 8 (pH8.1-8.2)) [nM] |
| --- | --- | --- | --- | --- | --- |
| CC(C)CC(=O)N[C@@H](C)C(=O)N1CCC[C@H]1C(=O)N[C@@H](CCC(=O)O)C(=O)N[C@@H](CCCCNC(=O)COCCOCCNC(=O)COCCOCCNC(=O)CC[C@H](NC(=O)CCCCCCCCCCCCCCCCC(=O)O)C(=O)O)C(=O)N1CCC[C@H]1C(=O)N[C@@H](CCC(=O)O)C(=O)N[C@@H](C)C(=O)N1CCC[C@H]1C(=O)N[C@@H](C)C(=O)N[C@@H](CO)C(=O)N1CCC[C@H]1C(=O)N[C@@H](CCC(=O)O)C(=O)N[C@@H](CCC(=O)O)C(=O)N[C@@H](CC(C)C)C(=O)N[C@@H](CCC(N)=O)C(=O)N[C@@H](CCCNC(=N)N)C(=O)N[C@@H](Cc1ccc(O)cc1)C(=O)N[C@@H](Cc1ccc(O)cc1)C(=O)N[C@H](C(=O)N[C@@H](CCC(=O)O)C(=O)N[C@@H](CC(C)C)C(=O)N[C@@H](CCCNC(=N)N)C(=O)N[C@@H](Cc1c[nH]cn1)C(=O)N[C@@H](Cc1ccc(O)cc1)C(=O)N[C@@H](Cc1ccc(O)cc1)C(=O)N[C@@H](CC(N)=O)C(=O)N[C@@H](Cc1c[nH]c2ccccc12)C(=O)N[C@@H](CC(C)C)C(=O)N[C@H](C(=O)N[C@@H](CCCNC(=N)N)C(=O)N[C@@H](CCC(N)=O)C(=O)N[C@@H](CCCNC(=N)N)C(=O)N[C@@H](Cc1ccc(O)cc1)C(N)=O)[C@@H](C)O)C(C)C [Compound 29, N{alpha-4}-(3-methylbutanoyl)-N{epsilon-7}-[2-(2-{2-[2-(2-{2-[(4S)-4-carboxy-4-(17-carboxyheptadecanamido)butanamido]ethoxy}ethoxy)acetamido]ethoxy}ethoxy)acetamido]-[4A,7K,9E,10A,11P,18Q,22V,23E,28Y,30W,31L]hPYY (4-36)] (Isovaleryl-APEK([AEEA-AEEA-γGlu-C18 diacid])PEAPASPEELQRYYVELRHYYNWLTRQRY-NH2) | 0.29 | 4.6 | 3.8 | 4.4 | 2.3 |
| CC[C@H](C)[C@H](NC(=O)[C@H](CCC(=O)O)NC(=O)[C@H](CCC(=O)O)NC(=O)[C@@H]1CCCN1C(=O)[C@H](CO)NC(=O)[C@H](C)NC(=O)[C@H](CC(=O)O)NC(=O)[C@H](CCC(=O)O)NC(=O)[C@H](CCC(=O)O)NC(=O)[C@@H]1CCCN1C(=O)[C@H](CCCCNC(=O)COCCOCCNC(=O)COCCOCCNC(=O)CC[C@H](NC(=O)CCCCCCCCCCCCCCCCC(=O)O)C(=O)O)NC(=O)[C@H](CCC(=O)O)NC(=O)[C@@H]1CCCN1C(=O)[C@H](C)NC(=O)CC(C)C)C(=O)N[C@@H](CCC(N)=O)C(=O)N[C@@H](CCCNC(=N)N)C(=O)N[C@@H](Cc1ccc(O)cc1)C(=O)N[C@@H](Cc1ccc(O)cc1)C(=O)N[C@H](C(=O)N[C@@H](CO)C(=O)N[C@@H](CC(C)C)C(=O)N[C@@H](CCCNC(=N)N)C(=O)N[C@@H](Cc1c[nH]cn1)C(=O)N[C@@H](Cc1ccc(O)cc1)C(=O)N[C@@H](Cc1ccc(O)cc1)C(=O)N[C@@H](CC(N)=O)C(=O)N[C@@H](Cc1c[nH]c2ccccc12)C(=O)N[C@@H](CC(C)C)C(=O)N[C@H](C(=O)N[C@@H](CCCNC(=N)N)C(=O)N[C@@H](CCC(N)=O)C(=O)N[C@@H](CCCNC(=N)N)C(=O)N[C@@H](Cc1ccc(O)cc1)C(N)=O)[C@@H](C)O)C(C)C [Compound 84, N{alpha-4}-(3-methylbutanoyl)-N{epsilon-7}-[2-(2-{2-[2-(2-{2-[(4S)-4-carboxy-4-(17-carboxyheptadecanamido)butanamido]ethoxy}ethoxy)acetamido]ethoxy}ethoxy)acetamido]-[4A,7K,9E,17I,18Q,22V,28Y,30W,31L]hPYY (4-36)] | 1.19 | 3.5 | 6.6 |  |  |
| CC(C)CC(=O)N[C@@H](C)C(=O)N1CCC[C@H]1C(=O)N[C@@H](C)C(=O)N[C@@H](CCCCNC(=O)COCCOCCNC(=O)COCCOCCNC(=O)CC[C@H](NC(=O)CCCCCCCCCCCCCCCCC(=O)O)C(=O)O)C(=O)N1CCC[C@H]1C(=O)N[C@@H](CCC(=O)O)C(=O)N[C@@H](CCC(=O)O)C(=O)N[C@@H](CC(=O)O)C(=O)N[C@@H](C)C(=O)N[C@@H](CO)C(=O)N1CCC[C@H]1C(=O)N[C@@H](CCC(=O)O)C(=O)N[C@@H](CCC(=O)O)C(=O)N[C@@H](CC(C)C)C(=O)N[C@@H](CCC(N)=O)C(=O)N[C@@H](CCCNC(=N)N)C(=O)N[C@@H](Cc1ccc(O)cc1)C(=O)N[C@@H](Cc1ccc(O)cc1)C(=O)N[C@H](C(=O)N[C@@H](CO)C(=O)N[C@@H](CC(C)C)C(=O)N[C@@H](CCCNC(=N)N)C(=O)N[C@@H](Cc1c[nH]cn1)C(=O)N[C@@H](Cc1ccc(O)cc1)C(=O)N[C@@H](Cc1ccc(O)cc1)C(=O)N[C@@H](CC(N)=O)C(=O)N[C@@H](Cc1c[nH]c2ccccc12)C(=O)N[C@@H](CC(C)C)C(=O)N[C@H](C(=O)N[C@@H](CCCNC(=N)N)C(=O)N[C@@H](CCC(N)=O)C(=O)N[C@@H](CCCNC(=N)N)C(=O)N[C@@H](Cc1ccc(O)cc1)C(N)=O)[C@@H](C)O)C(C)C [Compound 203, N{alpha-4}-(3-methylbutanoyl)-N{epsilon-7}-[2-(2-{2-[2-(2-{2-[(4S)-4-carboxy-4-(17-carboxyheptadecanamido)butanamido]ethoxy}ethoxy)acetamido]ethoxy}ethoxy)acetamido]-[4A,6A,7K,9E,18Q,22V,28Y,30W,31L]hPYY (4-36)] | 0.75 | 3 | 4.6 | 11.1 |  |
